{"source": "patent US6190699A", "about": "“Method of incorporating proteins or peptides into a matrix and administration thereof through mucosa” (NZL Corporation, priority 1998, dated 2001)", "key": {"[1]": {"tested_on": "diabetic rabbits", "assay": "Blood glucose levels in alloxan-diabetic rabbits after intravenous or intranasal insulin", "type": "in vivo, Male New Zealand White rabbits", "conditions": "intravenous injection, 0.3 and 0.4 U/kg insulin, -30 to 300 minutes (FIG. 1)"}, "[2]": {"tested_on": "rats", "conditions": "cited from earlier work"}, "[3]": {"assay": "Serum insulin levels (radio immune assay) in diabetic rabbits", "conditions": "intravenous injection, 0.3 and 0.4 U/kg insulin, diabetic rabbits (FIG. 2)", "experimental": "The animals used in this study were Male New Zealand White rabbits weighing approximately 2.5 kg. (Charles River Labs, Amherst, Mass.). The animals were housed individually in cages and given standard animal chow and water. All animals were treated according to the Guiding Principles for Laboratory Animal Care of the American Physiologic Society.\nThe animals were made diabetic by intravenously injecting 80 mg/kg of Alloxan suspended in isotonic saline solution into the animal. The animals' blood glucose levels were monitored every two to three hours for the first three days. When glucose levels reached 500 mg/dl during the first three days, insulin (0.15 U/kg) was administered.\nPrior to the experiment, the animals were fasted for 16 hours. The animals were then anesthetized by intravenously administering 30 mg/kg sodium pentobarbital. Forty minutes following the initial dose of pentobarbital, a second dose (6 mg/kg) was administered to the animals. […]\nThe animals were placed into groups of 3 to 7 animals for each experiment. […] Blood glucose levels and serum insulin levels were measured for each experiment. […]\nFollowing the blood glucose analysis, serum samples were obtained by centrifuging the blood samples collected at 3000 rpm for 10 minutes. […] Serum insulin levels were determined using radio immune assay kits. […]"}}, "note": "Read-outs that look alike come from different tables or passages of the source."}
{"substance": "insulin", "values": [{"measurement": "blood glucose levels", "setting": "[1]", "value": "showed a fall in blood glucose levels"}, {"measurement": "increase in concentration of insulin required intranasally to reach plasma glucose levels similar to parenteral administration", "setting": "[2]; intranasal vs parenteral", "value": 10, "unit": "fold"}, {"measurement": "plasma glucose levels", "setting": "[2]; intravenous administration", "value": "decreased significantly"}, {"measurement": "plasma glucose levels", "setting": "[2]; oral administration", "value": "only slightly decreased"}, {"measurement": "serum insulin levels", "setting": "[3]", "value": "serum insulin levels increased as the blood glucose levels fell"}]}
